Patent publication US20030153551A1, “Method for treating ocular neovascular diseases” (priority 2002, published 2003)

Legend:
[1] = tested on: retinal neovascularization; experiment: Oxygen-induced ischemic retinopathy in mice, lectin staining of retinal endothelial cells with image analysis; type: in vivo, C57/BL6J mice
Procedure: Ophthalmol. Vis. […] Vehicle (1% DMSO) or vehicle containing various concentrations of the drug (volume=10 μl per gram body weight) is placed in the stomach by gavage.
Some slides are counterstained with hematoxyln and all were mounted with Cytoseal.

[2] = tested on: endothelial cells of mature vessels; experiment: Effect on mature retinal vessels of adult mice, lectin staining with image analysis; type: in vivo, Adult C57BL6J mice; conditions: 600 mg/kg by gavage once a day, 5 days
Procedure: After 5 days of treatment, the mice are sacrificed, eyes are rapidly removed and frozen in optimum cutting temperature embedding compound (OCT; Miles Diagnostics, Elkhart, Ind.) or fixed in 10% phosphate-buffered formalin and embedded in paraffin. Adult C57BL6J mice are also treated by gavage with the drug or vehicle and after 5 days, they are sacrificed and their eyes are processed for frozen or paraffin sections.

[3] = tested on: retinal vascular development; experiment: Retinal vascular development in neonatal mice, fluorescein-dextran perfused retinal flat mounts; type: in vivo, newborn C57/BL6J mice; conditions: daily subcutaneous 100 mg/kg
Procedure: Litters of newborn C57/BL6J mice (neonatal mice) are divided into treatment and control groups which received daily subcutaneous injections of 100 mg/kg of the drug or vehicle, respectively. At 7 or 10 days of age, the mice are anesthetized with ether, and perfused with 1 ml of phosphate-buffered saline containing 50 mg/ml of fluorescein-labeled dextran (2×10^6 average mw, Sigma, St. Louis, Mo.) as described by Tobe et al., Evolution of Neovascularization in Mice with Overexpression of VEGF in Photoreceptors, Invest. Ophthalmol. Vis. Sci. 39, 180-188 (1998). The eyes are removed and fixed for 1 hour in 10% phosphate-buffered formalin. The cornea and lens are removed and the entire retina is carefully dissected from the eyecup. Radially cuts are made from the edge of the retina to the equator in all 4 quadrants, and the retina is flat-mounted in Aquamount with photoreceptors facing upward. […] Image-Pro™ Plus is used to measure the distance from the center of the optic nerve to the leading front of developing retinal vessels in each quadrant and the mean is used as a single experimental value.

[4] = tested on: choroidal neovascularization; experiment: Laser-induced choroidal neovascularization in mice, lectin staining with integrated area measurement; type: in vivo, C57BL/6J mice; conditions: 400 mg/kg/day orally by gavage
Procedure: C57BL/6J mice are treated in accordance with the Association for Research in Vision and Ophthalmology resolution for the treatment of animals. […] J Path, in press. Briefly, 4 to 5 week old male C57BL/6J mice are anesthetized with ketamine hydrochloride (100 mg/kg body weight) and the pupils are dilated with 1% tropicamide. Three burns of krypton laser photocoagulation (100 μm spot size, 0.1 seconds duration, 150 mW) are delivered to each retina using the slit lamp delivery system of a Coherent Model 920 Photocoagulator and a hand held cover slide as a contact lens. Burns are performed in the 9, 12, and 3 o'clock positions of the posterior pole of the retina. Production of a bubble at the time of laser, which indicates rupture of Bruch's membrane, is an important factor in obtaining CNV, so only mice in which a bubble is produced for all three burns are included. […] After 14 days, the mice are killed with an overdose of pentobarbital sodium, and their eyes are rapidly removed and frozen in optimal cutting temperature embedding compound (OCT). […] Slides are rinsed with 0.05M TBS and incubated 2 hours at 37° C. with biotinylated lectin. […] After a 10 minute incubation in 0.05 M Tris buffer, pH 7.6, slides are developed in Histomark Red (Kirkegaard and Perry) to give a red reaction product, and mounted with Cytoseal (Stephens Scientific, Riverdale, N.J.). Some slides are counterstained with Contrast Blue (Kirkegaard and Perry).
For each lesion, area measurements are made for all sections on which some of the lesion appeared and added together to give the integrated area measurement. Values are averaged to give one experimental value per mouse. A 2-sample t-test for unequal variances is performed to compare the log mean integrated area between treatment and control mice.

For `CO[C@@H]1[C@H](N(C)C(=O)c2ccccc2)C[C@H]2O[C@]1(C)n1c3ccccc3c3c4c(c5c6ccccc6n2c5c31)C(=O)NC4` [NBS, N-benzoyl-staurosporine], the “endothelial cell staining on and in the retinas by image analysis versus vehicle-treated mice” value ([1]; 60 mg/kg once a day) was “significantly less”, the “clumps of neovascularization on the surface of the retina versus vehicle-treated control mice” value ([1]; 60 mg/kg twice a day, gavage) was “less than clumps in the retina of the vehicle-treated control mice” and the “clumps of neovascularization on the surface of the retina versus vehicle-treated control mice” value ([1]; 300 mg/kg twice a day, gavage) was “less than clumps in the retina of the vehicle-treated control mice”. For the same molecule, the “endothelial cell staining on and in the retinas by image analysis versus vehicle-treated mice” value ([1]; 600 mg/kg once a day) was “significantly less”, the “endothelial cell staining on the surface and within the retina compared to vehicle-treated mice” value ([1]; 600 mg/kg once a day for 5 days, gavage) was “dramatic decrease” and the “total area of endothelial staining in the retina or appearance of retinal vessels compared to vehicle-treated mice” value [2] was “no difference”. The “toxicity to endothelial cells of mature vessels” value [2] was “not toxic”, the “difference in distance from the optic nerve to the vascular front between treated and control mice” value ([3]; at 7 and 10 days of age) was “statistically significant” and the “extent of retinal vessels toward the periphery” value ([3]; at 7 days of age) was “only extend slightly more than halfway to the periphery”. The “extent of superficial capillary bed” value ([3]; at 10 days of age) was “has not yet reached the edge of the retina”, the “integrated area of lectin staining per lesion” value ([4]; 14 days after laser, vehicle 0.0695621±0.0073960 mm^2, p=0.004) was 0.009018±0.001754 mm^2 and the “appearance of overlying retinal vessels in eyes of treated mice” value ([4]; two weeks after laser) was “appear normal”. For the same molecule, the “choroidal neovascularization at the site of each laser-induced rupture of Bruch's membrane” value ([4]; two weeks after laser) was “very little if any choroidal neovascularization”.
